The source of these data is US20130131008A1, “LIPOPHILIC MONOPHOSPHORYLATED DERIVATIVES AND NANOPARTICLES” (BOARD OF REGENTS, THE UNIVERSITY OF TEXAS SYSTEM, priority 2011, published 2013).

In general, IC50 refers to the concentration at which inhibition is half-maximal.

The test system of experiment [1] is L1210 wt cells. As to the kind of experiment: In vitro cytotoxicity assay (MTT), 72 h. In kind it is cell-based, murine. As to conditions: Mus musculus, 72 h incubation. The source says: Human leukemia cell line CCRF-CEM (CCL-119), human pancreatic cancer cell lines PANC-1 (CRL-1469), MIA PaCa-2 (CRL-1420), and BxPC-3 (CRL-1687), human breast adenocarcinoma cell line MCF-7 (HTB-22), and mouse lung cancer cell line TC-1 (CRL-2785) were from the American Type Culture Collection (Rockville, Md.). CCRF-CEM-AraC-8C cells (hENT1 deficient) and CCRF-CEM/dCK^−/− cells (dCK deficient) were kindly provided by Dr. Buddy Ullmann (Oregon Health & Science University, Portland, Oreg.) and Dr. Margaret Black (Washington State University, Pullman, Wash.), respectively. L1210 wt and L1210 10K were kindly supplied by Dr. Lars Petter Jordheim (Université Claude Bernard Lyon I, Lyon, France). TC-1-GR cells were previously developed in our lab. CCRF-CEM, CCRF-CEM-AraC-8C, CCRF-CEM/dCK^−/−, L1210 wt, L1210 10K, TC-1, and TC-1-GR cells were cultured in RPMI 1640 medium. […]
Cells (5,000/well) were seeded in 96-well plates. […] The number of viable cells after the incubation was determined using an MTT assay. […] Absorbance was measured using a BioTek Synergy™ HT Multi-Mode Microplate Reader (BioTek Instruments, Winooski, Vt.) at 570 nm and 630 nm. The fraction of affected (dead) cells (Fa) and the fraction of unaffected (live) cells (Fu) at every dose were calculated, and the Log(Fa/Fu) values were plotted against the Log(concentration of gemcitabine). […]

Experiment [2] relates to PANC-1 cells. As to the kind of experiment: In vitro cytotoxicity assay (MTT), 96 h, RRM2 over-expressing cells. It is filed as cell-based, human. The settings on record: for Ratio of IC50 in PANC-1 to that in MIA PaCa-2: HCl. The source says:
Human leukemia cell line CCRF-CEM (CCL-119), human pancreatic cancer cell lines PANC-1 (CRL-1469), MIA PaCa-2 (CRL-1420), and BxPC-3 (CRL-1687), human breast adenocarcinoma cell line MCF-7 (HTB-22), and mouse lung cancer cell line TC-1 (CRL-2785) were from the American Type Culture Collection (Rockville, Md.). CCRF-CEM-AraC-8C cells (hENT1 deficient) and CCRF-CEM/dCK^−/− cells (dCK deficient) were kindly provided by Dr. Buddy Ullmann (Oregon Health & Science University, Portland, Oreg.) and Dr. Margaret Black (Washington State University, Pullman, Wash.), respectively. L1210 wt and L1210 10K were kindly supplied by Dr. Lars Petter Jordheim (Université Claude Bernard Lyon I, Lyon, France). TC-1-GR cells were previously developed in our lab. CCRF-CEM, CCRF-CEM-AraC-8C, CCRF-CEM/dCK^−/−, L1210 wt, L1210 10K, TC-1, and TC-1-GR cells were cultured in RPMI 1640 medium. MCF-7 and PANC-1 cells were cultured in Dulbecco's modified Eagle medium (DMEM), MIA PaCa-2 cells were cultured in DMEM medium with 2.5% horse serum. All media were supplemented with 10% fetal bovine serum (FBS), 100 U/mL of penicillin, and 100 μg/mL of streptomycin (all from Invitrogen, Carlsbad, Calif.).
Cells (5,000/well) were seeded in 96-well plates. After overnight incubation, they were treated with various concentrations of gemcitabine HCl, gemcitabine derivatives, or gemcitabine derivatives in nanoparticles at 37° C., 5% CO2. TC-1 and TC-1-GR cells were incubated for 48 h. CCRF-CEM, CCRF-CEM-AraC-8C, CCRF-CEM/dCK^−/−, L1210 wt, L1210 10K, and MCF-7 cells were incubated for 72 h, and MIA PaCa-2 and PANC-1 for 96 h. Gemcitabine HCl was dissolved in phosphate-buffered saline (PBS), and gemcitabine derivatives were dissolved in dimethyl sulfoxide (DMSO). […] The number of viable cells after the incubation was determined using an MTT assay. Briefly, 3-(4,5-dimethylthiazol-2-yl)-2,5-diphenyltetrazolium bromide (20 μl, 5 mg/mL) was added in each well and incubated for 3 h. Formazan crystals were solubilized with acidified isopropanol (150 μl) (for CCRF-CEM, CCRF-CEM-AraC-8C, CCRF-CEM/dCK^−/−, L1210 wt, and L1210 10K cells) or DMSO (150 μl) (for TC-1, TC-1-GR, MCF-7, PANC-1, and MIA PaCa-2). Absorbance was measured using a BioTek Synergy™ HT Multi-Mode Microplate Reader (BioTek Instruments, Winooski, Vt.) at 570 nm and 630 nm. The fraction of affected (dead) cells (Fa) and the fraction of unaffected (live) cells (Fu) at every dose were calculated, and the Log(Fa/Fu) values were plotted against the Log(concentration of gemcitabine). IC50 was the dose at Log(Fa/Fu)=0, See e.g., Chou, T. C. & Talalay, P., 1984, Adv. Enzyme Regul. 22:27-55. The experiment was repeated at least three times.

For the molecule `Cl.Nc1ccn([C@@H]2O[C@H](CO)[C@@H](O)C2(F)F)c(=O)n1` [Gemcitabine HCl, 2′,2′-difluorodeoxycytidine HCl, reference compound], the IC50 is 1.3 ± 0.3 nM in experiment [1] and greater than 400000 nM in experiment [2] (Homo sapiens, PANC-1, MTT, 96 h incubation, RRM2 over-expressing). Also, the “Ratio of IC50 in PANC-1 to that in MIA PaCa-2” value is recorded as >8,000 in experiment [2] and “more than 8,000” in experiment [2] (listed as gemcitabine HCl). Moreover, the “PANC-1 cells still alive” value in experiment [2] (after 96 h of incubation with 400 μM) was “more than 50%”.
